The text below walks through data of ChEMBL document CHEMBL1201862, “PubChem BioAssay data set” (2004).

Holding throughout (assay): NCI tumour cell line growth inhibition, 48 h
The subject of assay [1] is A549.
Assay [2] concerns ACHN.
Assay [3] concerns EKVX.
The subject of assay [4] is HOP-62.
Assay [5] concerns HOP-92.
The test system of assay [6] is OVCAR-8.
In assay [7] the test system is RXF 393.
In assay [8] the test system is SF-268.
Assay [9] concerns SK-MEL-2.
The test system of assay [10] is SK-MEL-5.
Assay [11] has as its system SN12C.
The subject of assay [12] is TK-10.
Assay [13] concerns UACC-62.
Assay [14] relates to SNB-19.
The test system of assay [15] is SR.

Each structure is given as a SMILES string.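 A five-concentration, 48-hour dose response in 96-well plates underlies each endpoint, interpolated linearly between surrounding concentrations. At the GI50, growth is halved.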 Activity calls are given as the source filed them. Cut-off read from the data, not from the text of the source: active = GI50 up to about 1.1 µM and inactive = higher.

On to `O=C1C=CC2(C=C1)CCNC1=C2C(=O)c2ccccc2C1=O`, for which the GI50 in assay [1], in [2], in assay [3], in assay [4], in [5] and in assay [6] was > 100 µM (inactive) throughout. Also, the GI50 in [7] was > 100 µM (inactive); in assay [8], > 100 µM (inactive); in [9], > 100 µM (inactive); in assay [10], 56.9 µM (inactive); in assay [11], > 100 µM (inactive); in [12], > 100 µM (inactive). Besides, the GI50 in [13] was > 100 µM (inactive).

In the case of `c1cc(-c2cn3ccsc3n2)ccn1`, the GI50 in assay [1] is > 100 µM (inactive); in assay [2], > 100 µM (inactive); in [3] it was > 41.8 µM (inactive); in [4] it was > 100 µM (inactive); in assay [5], > 100 µM (inactive); in assay [6] it was > 45.1 µM (inactive). Besides, the GI50 in assay [8] was > 100 µM (inactive); in [9], > 100 µM (inactive); in assay [10], > 100 µM (inactive); in assay [11], > 100 µM (inactive); in assay [14] it was > 100 µM (inactive); in assay [15] it was 65.9 µM (inactive). In addition, the GI50 in assay [12] and in [13] was > 100 µM (inactive) each time.

Turning to `N#CC(NNC(=O)c1ccccc1O)c1cccc(O)c1` (stereo unspecified), the GI50 in assay [1] is 2.21 µM (inactive); in [2], 2.31 µM (inactive); in assay [4], 10.6 µM (inactive); in assay [5], 4.25 µM (inactive); in [6], 8.22 µM (inactive); in [7], 1.78 µM (inactive). For the same compound, the GI50 in assay [8] was 0.986 µM (active); in assay [9], 5.7 µM (inactive); in [10], 18.2 µM (inactive); in assay [11], 4.7 µM (inactive); in [15] it was > 100 µM (inactive); in assay [12] it was > 100 µM (inactive). The GI50 in assay [13] is 1.85 µM (inactive).

Take `O=C(O)/C=C\C(=O)Nc1ccc(S(=O)(=O)c2ccc(NC(=O)/C=C\C(=O)O)cc2)cc1`: the GI50 in assay [1], in assay [2], in assay [3], in [4], in assay [5] and in [6] was > 100 µM (inactive) throughout. In addition, the GI50 in assay [8], in assay [9], in assay [10], in assay [11], in [14] and in assay [15] was > 100 µM (inactive) throughout. Moreover, the GI50 in [12] and in assay [13] was > 100 µM (inactive) each time.

Consider `Cn1cc(NC(=O)c2cc(NC(=O)CCCCCCC(=O)Nc3cc(C(=O)Nc4cc(C(=O)NCCC(=N)N)n(C)c4)n(C)c3)cn2C)cc1C(=O)NCCC(=N)N`, for which the GI50 in assay [1] is 7.29 µM (inactive); in assay [2] it was 8.85 µM (inactive); in assay [3], 16.7 µM (inactive); in [5], > 100 µM (inactive); in assay [6], 16.3 µM (inactive); in assay [7], 17 µM (inactive). Moreover, the GI50 in assay [8] was 18.7 µM (inactive); in assay [10] it was 1.92 µM (inactive); in assay [11], 3.84 µM (inactive); in assay [14], 29.2 µM (inactive); in assay [12] it was 11.6 µM (inactive); in assay [13], 7.6 µM (inactive).

Regarding `COc1ccc(-c2cc(C(=O)Nc3ccc(C)c(C)c3)nc(NC#N)n2)cc1`, the GI50 in assay [1], in assay [2], in assay [3], in assay [6], in assay [7] and in [8] was > 100 µM (inactive) in each case. In addition, the GI50 in assay [9], in assay [10], in assay [11], in assay [14], in assay [12] and in assay [13] was > 100 µM (inactive) throughout.

For the compound `N#Cc1cccc(-n2[nH]c(=O)ccc2=O)c1`, the GI50 in assay [1], in assay [2], in assay [4], in [5], in assay [6] and in assay [8] was > 100 µM (inactive) in each case. In addition, the GI50 in assay [9], in assay [10], in [14], in assay [15], in assay [12] and in assay [13] was > 100 µM (inactive) each time.

Regarding `N=C(N)C1=C(O)NC(=O)N(C2CCCCC2)C1`, the GI50 in [1], in assay [2], in [4], in assay [5], in [6] and in [7] was > 100 µM (inactive) throughout. The GI50 in [8], in [9], in assay [10], in [11], in assay [14] and in [15] was > 100 µM (inactive) in each case. Also, the GI50 in assay [12] and in assay [13] was > 100 µM (inactive) in each case.

On to `COc1cc([C@@H]2c3cc4c(cc3[C@@H](NC(=O)c3ccccc3)C3COC(=O)[C@@H]32)OCO4)cc(OC)c1O` (stereo partly specified), for which the GI50 in [1] is 1.04 µM (active); in [2], 1.45 µM (inactive); in [3], 21.4 µM (inactive); in [4], 2.54 µM (inactive); in assay [5], 8.39 µM (inactive); in assay [6] it was 8.99 µM (inactive). Further, the GI50 in assay [7] is 7.31 µM (inactive); in [8], 4.55 µM (inactive); in assay [9], 20.3 µM (inactive); in [10], 2.31 µM (inactive); in assay [11] it was 2.55 µM (inactive); in assay [14], 19.4 µM (inactive). For the same compound, the GI50 in assay [12] was 32.4 µM (inactive); in [13] it was 0.568 µM (active).

Take `Cc1ccc(C(=O)O)cc1NC(=O)c1cc(/C=C/c2ccccc2)[nH]c(=S)n1`: the GI50 in assay [1] was > 65.8 µM (inactive); in assay [2], > 89.9 µM (inactive); in [3], > 100 µM (inactive); in assay [4] it was > 100 µM (inactive); in [5], > 100 µM (inactive); in assay [6], > 100 µM (inactive). Besides, the GI50 in assay [7], in assay [8], in [10], in [11], in assay [14] and in assay [15] was > 100 µM (inactive) each time. Further, the GI50 in assay [12] and in [13] was > 100 µM (inactive) each time.

Take `COc1cc2nncc(Sc3cnnc4ccccc34)c2cc1OC`: the GI50 in assay [1] is 25.5 µM (inactive); in assay [2] it was 20.1 µM (inactive); in assay [3] it was 37.1 µM (inactive); in assay [4], 34.3 µM (inactive); in [5], 6.14 µM (inactive); in assay [8], 31.1 µM (inactive). The GI50 was 16.7 µM (inactive) in assay [9]; 14.2 µM (inactive) in [10]; 19.8 µM (inactive) in assay [14]; 29 µM (inactive) in [12]; 7.52 µM (inactive) in assay [13].

Consider `O=[N+]([O-])c1ccc(-c2noc(-c3ccccc3)c2C2=NCCN2)cc1`, for which the GI50 in [1] was > 100 µM (inactive); in [2], > 100 µM (inactive); in assay [3], > 100 µM (inactive); in assay [4], 29.9 µM (inactive); in assay [6] it was > 100 µM (inactive); in [7] it was 38.6 µM (inactive). Further, the GI50 in assay [8] was 63.2 µM (inactive); in assay [9], > 100 µM (inactive); in [10], 12.9 µM (inactive); in assay [11] it was > 100 µM (inactive); in [14], 53.2 µM (inactive); in assay [15], 81.8 µM (inactive). The GI50 in assay [13] was > 100 µM (inactive).

Consider `C#CCn1c(=O)c2cccnc2n(CC#C)c1=O`, for which the GI50 in assay [1], in assay [2], in assay [4], in assay [5], in assay [7] and in assay [8] was > 100 µM (inactive) throughout. Further, the GI50 in assay [9], in [10], in assay [11], in [14], in assay [15] and in assay [12] was > 100 µM (inactive) each time.

As for `CCN(CC)CC1c2ccccc2C(CNc2ccccc2)N1C` (stereo unspecified), the GI50 is > 100 µM (inactive) in assay [1]; > 100 µM (inactive) in assay [2]; > 100 µM (inactive) in assay [3]; > 100 µM (inactive) in [4]; 30.1 µM (inactive) in assay [5]; > 100 µM (inactive) in assay [6]. The GI50 in [7], in assay [8], in [9], in assay [10], in assay [11] and in assay [14] was > 100 µM (inactive) throughout. The GI50 in assay [12] and in assay [13] was > 100 µM (inactive) throughout.

For `CCN(CC)CCOC(c1ccccc1)c1ccccc1.CCOC(=O)Nc1ccc(S(=O)(=O)NCCCl)cc1.CCOC(=O)Nc1ccc(S(=O)(=O)NCCCl)cc1.Nc1ccc(C(=O)O)c(O)c1`, the GI50 in assay [1], in [2], in assay [3], in assay [4], in assay [5] and in assay [6] was > 100 µM (inactive) in each case. The GI50 in [7], in assay [8], in assay [9], in [10], in assay [11] and in [14] was > 100 µM (inactive) throughout. For the same compound, the GI50 in assay [12] and in [13] was > 100 µM (inactive) in each case.
